Results on four compounds are retold here after ChEMBL document CHEMBL1201862, “PubChem BioAssay data set” (2004).

Some test systems named below: DU-145; HCT-15; HL-60; HOP-62; K562; MCF7; Malme-3M; NCI-H23; NCI-H460; NCI-H522; OVCAR-8; RPMI-8226; SF-268; SF-295; SK-MEL-2; SNB-19; T47D; UACC-62.
Holding throughout (experiment): DTP human tumour cell line panel, 48 h

In general, GI50 refers to the concentration at which growth is held to half of that of the control.

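Step 1: Grow cells in 96-well plates. Step 2: Expose to compound for 48 hours at 5 concentrations. Step 3: Interpolate endpoints linearly; if unreached, use highest concentration. At the GI50, growth is halved.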 Active and inactive are the calls of the source. Rule as the data show it: active = GI50 up to about 1.1 µM and inactive = higher. Some results are limits rather than exact numbers.

`COc1cc2c(c(O)c1OC)C(=O)[C@@H]1CCC(=O)N1C2`: the GI50 with DU-145 was > 100 µM (inactive); with HCT-15 it was above 100 µM; with HL-60, > 100 µM (inactive); in the experiment on HOP-62, > 100 µM (inactive); in the experiment on K562, > 100 µM (inactive); in the experiment with MCF7 it was > 100 µM (inactive). Also, the GI50 with Malme-3M, with NCI-H23, with NCI-H460, in the experiment on NCI-H522, in the experiment with OVCAR-8 and with RPMI-8226 was > 100 µM (inactive) in each case. The GI50 in the experiment on SF-268, in the experiment with SF-295, in the experiment with SK-MEL-2, with SNB-19, with T47D and in the experiment on UACC-62 was > 100 µM (inactive) throughout.

Regarding `O=C(O)C1C(C(=O)O)C23CC2(C(=O)O)C2(C(=O)O)CCC3=C3CCCC312` (configuration not stated), the GI50 was 11.7 µM (inactive) in the experiment on DU-145; 15.1 µM with HCT-15; 3.44 µM (inactive) in the experiment with HL-60; 4.44 µM (inactive) in the experiment on HOP-62; 12.7 µM (inactive) in the experiment with K562; 11.7 µM (inactive) in the experiment on MCF7. In addition, the GI50 with Malme-3M was 4.21 µM (inactive); in the experiment on NCI-H23 it was 7.96 µM (inactive); in the experiment with NCI-H460, 4.99 µM (inactive); in the experiment on NCI-H522, 3.73 µM (inactive); in the experiment with OVCAR-8 it was 10.7 µM (inactive); in the experiment on RPMI-8226 it was 6.01 µM (inactive). Moreover, the GI50 was 4.51 µM (inactive) in the experiment on SF-268; 4.13 µM (inactive) in the experiment with SF-295; 14 µM (inactive) with SK-MEL-2; 7.93 µM (inactive) in the experiment on SNB-19; 11.8 µM (inactive) in the experiment on T47D; 10.5 µM (inactive) in the experiment on UACC-62.

For the compound `COc1cc(C)c(/C=C2/N=C(c3ccccc3)OC2=O)c([N+](=O)[O-])c1OC`, the GI50 in the experiment with DU-145 was > 100 µM (inactive); in the experiment with HCT-15, above 100 µM; in the experiment on HL-60, > 100 µM (inactive); in the experiment with HOP-62 it was > 100 µM (inactive); with K562, > 100 µM (inactive); with MCF7 it was > 100 µM (inactive). The GI50 with Malme-3M, in the experiment on NCI-H23, in the experiment on NCI-H460, with NCI-H522, with OVCAR-8 and in the experiment on RPMI-8226 was > 100 µM (inactive) in each case. The GI50 in the experiment on SF-268, in the experiment with SF-295, in the experiment on SK-MEL-2, with SNB-19, with T47D and with UACC-62 was > 100 µM (inactive) throughout.

With `O=c1[nH]nc(Nc2ccc(Cl)cc2)c2nnn(C3CCCCC3)c12`, the GI50 is > 100 µM (inactive) in the experiment with DU-145; 72.8 µM in the experiment on HCT-15; 86.3 µM (inactive) in the experiment on HL-60; 30.8 µM (inactive) in the experiment on HOP-62; 26.5 µM (inactive) in the experiment on K562; 58.5 µM (inactive) with MCF7. For the same compound, the GI50 in the experiment with Malme-3M was 50.8 µM (inactive); in the experiment with NCI-H23 it was 45.3 µM (inactive); in the experiment on NCI-H460, 41.4 µM (inactive); in the experiment on NCI-H522, 23.9 µM (inactive); with OVCAR-8, 14.1 µM (inactive); in the experiment on RPMI-8226 it was 50.7 µM (inactive). For the same compound, the GI50 with SF-268 was 36.6 µM (inactive); in the experiment on SF-295, > 100 µM (inactive); in the experiment with SK-MEL-2, > 100 µM (inactive); with SNB-19, > 100 µM (inactive); with T47D, > 100 µM (inactive); in the experiment on UACC-62, > 100 µM (inactive).
